From ChEMBL document CHEMBL3885861, “Open TG-GATES”

Species: Rattus norvegicus
Test: Open TG-GATES - Regimen: Daily Repeat
Type: toxicity, organism-based, Sprague-Dawley
Set-up: regimen Daily Repeat, gender Male, age 6 weeks
Conditions: in vivo, po, 0 mg/kg, route gavage, dose level Control; for APTT / Bas / Eos / Fbg / Hb / Ht / Lym / MCH / MCHC / MCV / Mono / Neu / PT / Plat / RBC / Ret / WBC: tissue Blood; for KIDNEY_L / KIDNEY_R / KIDNEY_TOTAL: tissue Kidney; for LIVER: tissue Liver; for A/G / ALP / ALT / AST / BUN / CRE / Ca / Cl / DBIL / GLC / IP / K / LDH / Na / PL / RALB / TBIL / TC / TG / TP / gamma-GTP: tissue Plasma

CC(CN1c2ccccc2Sc2ccccc21)N(C)C (configuration not stated) [PROMETHAZINE]
TERMINAL_BW (72 h, time 3 day): 230.6 g
APTT (72 h, time 3 day): 22.8 s
Bas (72 h, time 3 day): 0%
Eos (72 h, time 3 day): 1%
Fbg (72 h, time 3 day): 309 mg/dL
Hb (72 h, time 3 day): 13.2 g/dL
Ht (72 h, time 3 day): 40.1%
Lym (72 h, time 3 day): 81.2%
MCH (72 h, time 3 day): 20.4 pg
MCHC (72 h, time 3 day): 33%
MCV (72 h, time 3 day): 61.9 fL
Mono (72 h, time 3 day): 2.8%
Neu (72 h, time 3 day): 14.5%
PT (72 h, time 3 day): 16.1 s
Plat (72 h, time 3 day): 117 x10_4/uL
RBC (72 h, time 3 day): 647.8 x10_4/ul
Ret (72 h, time 3 day): 6%
WBC (72 h, time 3 day): 94 x10_2/uL
KIDNEY_L (72 h, time 3 day): 1 g
KIDNEY_R (72 h, time 3 day): 1.1 g
KIDNEY_TOTAL (72 h, time 3 day): 2.1 g
LIVER (72 h, time 3 day): 11.1 g
A/G (72 h, time 3 day): 1.3
ALP (72 h, time 3 day): 1577 IU/L
ALT (72 h, time 3 day): 40 IU/L
AST (72 h, time 3 day): 71.8 IU/L
BUN (72 h, time 3 day): 17 mg/dL
CRE (72 h, time 3 day): 0.2 mg/dL
Ca (72 h, time 3 day): 10.5 mg/dL
Cl (72 h, time 3 day): 105.2 meq/L
DBIL (72 h, time 3 day): 0 mg/dL
GLC (72 h, time 3 day): 195.2 mg/dL
IP (72 h, time 3 day): 6.8 mg/dL
K (72 h, time 3 day): 4.6 meq/L
LDH (72 h, time 3 day): 177 IU/L
Na (72 h, time 3 day): 141.2 meq/L
PL (72 h, time 3 day): 161 mg/dL
RALB (72 h, time 3 day): 3.1 g/dL
TBIL (72 h, time 3 day): 0.005 mg/dL
TC (72 h, time 3 day): 86.8 mg/dL
TG (72 h, time 3 day): 109.8 mg/dL
TP (72 h, time 3 day): 5.5 g/dL
gamma-GTP (72 h, time 3 day): 1.8 IU/L
TERMINAL_BW ([…], time 7 day): 267.8 g
TERMINAL_BW ([…], time 14 day): 326 g
TERMINAL_BW ([…], time 28 day): 402.8 g
APTT ([…], time 7 day): 22.2 s
Bas ([…], time 7 day): 0%
Eos ([…], time 7 day): 0.8%
Fbg ([…], time 7 day): 293.8 mg/dL
Hb ([…], time 7 day): 12.9 g/dL
Ht ([…], time 7 day): 39.1%
Lym ([…], time 7 day): 84.2%
MCH ([…], time 7 day): 20.4 pg
MCHC ([…], time 7 day): 33%
MCV ([…], time 7 day): 61.7 fL
Mono ([…], time 7 day): 2.2%
Neu ([…], time 7 day): 12.2%
PT ([…], time 7 day): 16.3 s
Plat ([…], time 7 day): 105 x10_4/uL
RBC ([…], time 7 day): 633.4 x10_4/ul
Ret ([…], time 7 day): 6.3%
WBC ([…], time 7 day): 131.7 x10_2/uL
APTT ([…], time 14 day): 23.3 s
Bas ([…], time 14 day): 0%
Eos ([…], time 14 day): 1%
Fbg ([…], time 14 day): 317.8 mg/dL
Hb ([…], time 14 day): 14.1 g/dL
Ht ([…], time 14 day): 41.4%
Lym ([…], time 14 day): 80.2%
MCH ([…], time 14 day): 20.7 pg
MCHC ([…], time 14 day): 34%
MCV ([…], time 14 day): 60.8 fL
Mono ([…], time 14 day): 2%
Neu ([…], time 14 day): 15.8%
PT ([…], time 14 day): 16 s
Plat ([…], time 14 day): 114.3 x10_4/uL
RBC ([…], time 14 day): 681 x10_4/ul
Ret ([…], time 14 day): 5.1%
WBC ([…], time 14 day): 127.7 x10_2/uL
APTT ([…], time 28 day): 22.7 s
Bas ([…], time 28 day): 0%
Eos ([…], time 28 day): 0.8%
Fbg ([…], time 28 day): 341.8 mg/dL
Hb ([…], time 28 day): 15.1 g/dL
Ht ([…], time 28 day): 43.8%
Lym ([…], time 28 day): 80.2%
MCH ([…], time 28 day): 19.9 pg
MCHC ([…], time 28 day): 34.6%
MCV ([…], time 28 day): 57.7 fL
Mono ([…], time 28 day): 1.8%
Neu ([…], time 28 day): 16.4%
PT ([…], time 28 day): 16.4 s
Plat ([…], time 28 day): 101.8 x10_4/uL
RBC ([…], time 28 day): 760.2 x10_4/ul
Ret ([…], time 28 day): 2.9%
WBC ([…], time 28 day): 124 x10_2/uL
KIDNEY_L ([…], time 7 day): 1.2 g
KIDNEY_R ([…], time 7 day): 1.2 g
KIDNEY_TOTAL ([…], time 7 day): 2.3 g
KIDNEY_L ([…], time 14 day): 1.2 g
KIDNEY_R ([…], time 14 day): 1.2 g
KIDNEY_TOTAL ([…], time 14 day): 2.5 g
KIDNEY_L ([…], time 28 day): 1.4 g
KIDNEY_R ([…], time 28 day): 1.4 g
KIDNEY_TOTAL ([…], time 28 day): 2.8 g
LIVER ([…], time 7 day): 12.3 g
LIVER ([…], time 14 day): 15.1 g
LIVER ([…], time 28 day): 16.9 g
A/G ([…], time 7 day): 1.3
ALP ([…], time 7 day): 1379.8 IU/L
ALT ([…], time 7 day): 42.2 IU/L
AST ([…], time 7 day): 73.2 IU/L
BUN ([…], time 7 day): 17.6 mg/dL
CRE ([…], time 7 day): 0.2 mg/dL
Ca ([…], time 7 day): 10.7 mg/dL
Cl ([…], time 7 day): 104.6 meq/L
DBIL ([…], time 7 day): 0 mg/dL
GLC ([…], time 7 day): 205.2 mg/dL
IP ([…], time 7 day): 7.7 mg/dL
K ([…], time 7 day): 4.6 meq/L
LDH ([…], time 7 day): 212.4 IU/L
Na ([…], time 7 day): 141.2 meq/L
PL ([…], time 7 day): 133.6 mg/dL
RALB ([…], time 7 day): 3.1 g/dL
TBIL ([…], time 7 day): 0.012 mg/dL
TC ([…], time 7 day): 64.4 mg/dL
TG ([…], time 7 day): 89.4 mg/dL
TP ([…], time 7 day): 5.4 g/dL
gamma-GTP ([…], time 7 day): 2 IU/L
A/G ([…], time 14 day): 1.2
ALP ([…], time 14 day): 1370.6 IU/L
ALT ([…], time 14 day): 40 IU/L
AST ([…], time 14 day): 70.4 IU/L
BUN ([…], time 14 day): 18.8 mg/dL
CRE ([…], time 14 day): 0.2 mg/dL
Ca ([…], time 14 day): 10.8 mg/dL
Cl ([…], time 14 day): 105.4 meq/L
DBIL ([…], time 14 day): 0 mg/dL
GLC ([…], time 14 day): 201 mg/dL
IP ([…], time 14 day): 7 mg/dL
K ([…], time 14 day): 4.3 meq/L
LDH ([…], time 14 day): 162.6 IU/L
Na ([…], time 14 day): 142.2 meq/L
PL ([…], time 14 day): 136.8 mg/dL
RALB ([…], time 14 day): 3.2 g/dL
TBIL ([…], time 14 day): 0.002 mg/dL
TC ([…], time 14 day): 66 mg/dL
TG ([…], time 14 day): 133 mg/dL
TP ([…], time 14 day): 5.9 g/dL
gamma-GTP ([…], time 14 day): 3 IU/L
A/G ([…], time 28 day): 1
ALP ([…], time 28 day): 1347.2 IU/L
ALT ([…], time 28 day): 42.4 IU/L
AST ([…], time 28 day): 66.8 IU/L
BUN ([…], time 28 day): 19.4 mg/dL
CRE ([…], time 28 day): 0.2 mg/dL
Ca ([…], time 28 day): 10.4 mg/dL
Cl ([…], time 28 day): 104.8 meq/L
DBIL ([…], time 28 day): 0 mg/dL
GLC ([…], time 28 day): 195.8 mg/dL
IP ([…], time 28 day): 6.3 mg/dL
K ([…], time 28 day): 4 meq/L
LDH ([…], time 28 day): 160.6 IU/L
Na ([…], time 28 day): 143.2 meq/L
PL ([…], time 28 day): 149 mg/dL
RALB ([…], time 28 day): 3 g/dL
TBIL ([…], time 28 day): 0.006 mg/dL
TC ([…], time 28 day): 65.8 mg/dL
TG ([…], time 28 day): 192.8 mg/dL
TP ([…], time 28 day): 6.2 g/dL
gamma-GTP ([…], time 28 day): 2.6 IU/L
